According to patent US20240300902A1, “NOVEL TRANSGLUTAMINASE 2 INHIBITOR AND USE THEREOF” (MD BIOLAB CO., LTD., priority 2021, published 2024):

Experiments:
MDA-MB231 cells = experiment: Cell viability in breast cancer cell lines according to concentration; type: cell-based
Procedure: First breast cancer cells (MDA-MB-453, HCC-1806, HCC-1937: 10,000 cells/well, 100 μl) and second breast cancer cells (MDA-MB-231, MCF-7: 10,000 cells/well, 100 μl) were cultured in 96-well microplates.
After 24 hours, LDD3959 […] of various concentrations were added to each well, using a serum-free cell culture medium, and a reaction was allowed to proceed for 2 hours at 37° C. in the presence of 5% CO2. The culture medium was replaced with a culture medium containing 10% FSB, and a reaction was performed for 72 hours.
The existing culture medium was removed, and a new culture medium containing a water soluble tetrazolium salt was added. After that, the plate underwent a reaction at 37° C. in the presence of 5% CO2 for a duration in the range of 1 hour to 3 hours, and then absorbance was measured at 450 nm.

430 kinds of kinases = experiment: Kinase panel assay conducted by Eurofins; type: biochemical
Procedure: A total of 430 kinds of kinases were treated with 1 μM of LDD3959 through a kinase panel assay conducted by Eurofins to examine each activity.
The ATP concentration used in this experiment was 10 μM.

For `O=C1C(Cl)=C(Cl)C(=O)c2[nH]c(-c3ccc(Br)c(F)c3)nc21` [LDD3959, 2-(4-bromo-3-fluorophenyl)-5,6-dichloro-1H-benzo[d]imidazole-4,7-dione], the “effective concentration for apoptosis” value (MDA-MB231 cells; MDA-MB231, highest expression level of transglutaminase 2, 72 hours) was “the effective concentration was lowest, and the efficacy was best”, the “acting concentration compared with conventional transglutaminase 2 inhibitors” value (MDA-MB231 cells; breast cancer cell lines) was “lower concentrations than conventional transglutaminase 2 inhibitors” and the “number of kinases that specifically showed inhibition” value (430 kinds of kinases; 430 kinases treated with 1 μM) was 4. For the same compound, the “inhibitory activity against the 4 kinases” value (430 kinds of kinases; highest concentration 1 μM, ATP 10 μM) was “very good inhibitory activity”.
